Drawing on PubChem BioAssay (NCI), this text covers GI50 and TGI for two compounds.

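In this assay, cells in 96-well plates receive the compound at five concentrations for 48 hours. Endpoints are linearly interpolated between the surrounding concentrations. Abbreviation: GI50, concentration required for 50% inhibition of growth. TGI: concentration producing complete growth inhibition.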

Some test systems named below: SK-MEL-2 melanoma; DU-145 prostate; TK-10 renal; UO-31 renal; UACC-257 melanoma; SN12C renal; HOP-92 NSCLC; NCI/ADR-RES ovarian; BT-549 breast; SF-539 CNS.
Assay in all cases: inhibition of tumour cell growth, NCI panel, 48 h

In the case of `O=C1CC2OCC=C3CN4CCC56c7ccccc7N1C5C2C3CC46` (stereo not given) (tested in a mixture with another compound), the GI50 with SK-MEL-2 melanoma, in the assay on DU-145 prostate, in the assay with TK-10 renal, in the assay with UO-31 renal, in the assay on UACC-257 melanoma and in the assay on SN12C renal was greater than 50 µg/mL each time. The GI50 in the assay on HOP-92 NSCLC, in the assay on NCI/ADR-RES ovarian, in the assay with BT-549 breast and with SF-539 CNS was greater than 50 µg/mL throughout. The TGI in the assay with SK-MEL-2 melanoma, in the assay on DU-145 prostate, with TK-10 renal, in the assay on UO-31 renal, in the assay on UACC-257 melanoma and in the assay on SN12C renal was greater than 50 µg/mL in each case. Further, the TGI with HOP-92 NSCLC, in the assay with NCI/ADR-RES ovarian, in the assay on BT-549 breast and in the assay on SF-539 CNS was greater than 50 µg/mL each time.
Turning to `CC1(C)N=C(N)N=C(N)N1c1ccc(CCC(=O)Nc2cccc(S(=O)(=O)F)c2)cc1`, the GI50 is 10.8 µM in the assay with SK-MEL-2 melanoma; 5.81 µM with DU-145 prostate; 5.57 µM in the assay with TK-10 renal; 13.2 µM with UO-31 renal; 4.09 µM in the assay with UACC-257 melanoma; 4.67 µM with SN12C renal. The GI50 in the assay with HOP-92 NSCLC is greater than 100 µM; in the assay on NCI/ADR-RES ovarian it was greater than 100 µM; in the assay with BT-549 breast, 7.21 µM; in the assay on SF-539 CNS it was 5.65 µM. Moreover, the TGI in the assay on SK-MEL-2 melanoma, in the assay with DU-145 prostate, in the assay with TK-10 renal, with UO-31 renal, in the assay on UACC-257 melanoma and in the assay on SN12C renal was greater than 100 µM in each case. Also, the TGI in the assay with HOP-92 NSCLC, in the assay on NCI/ADR-RES ovarian, with BT-549 breast and in the assay on SF-539 CNS was greater than 100 µM each time.
